# Experimental data from US12275731B2, “Azaindole inhibitors of wild-type and mutant forms of LRRK2” (DANA-FARBER CANCER INSTITUTE, INC., priority 2018, dated 2025).
# Legend:
# Assay in all cases: KinomeScan profiling
# Type in all cases: binding
# FGFR3 = FGFR3 (Homo sapiens, UniProt P22607); details: FGFR3, 1 μM; read-out: % control
# Outline: (§1)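 Compounds were screened at 1 μM in DMSO across a 468-kinase KinomeScan panel. Binding was expressed as % control, scaled between a positive control (0%) and DMSO (100%) using luminescence signal. A value under 35% counted as active.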
# LRRK2 = LRRK2 (Homo sapiens, UniProt Q5S007); details: LRRK2, 1 μM; read-out: % control
# Chain of LRRK2 (Q5S007 whole entry): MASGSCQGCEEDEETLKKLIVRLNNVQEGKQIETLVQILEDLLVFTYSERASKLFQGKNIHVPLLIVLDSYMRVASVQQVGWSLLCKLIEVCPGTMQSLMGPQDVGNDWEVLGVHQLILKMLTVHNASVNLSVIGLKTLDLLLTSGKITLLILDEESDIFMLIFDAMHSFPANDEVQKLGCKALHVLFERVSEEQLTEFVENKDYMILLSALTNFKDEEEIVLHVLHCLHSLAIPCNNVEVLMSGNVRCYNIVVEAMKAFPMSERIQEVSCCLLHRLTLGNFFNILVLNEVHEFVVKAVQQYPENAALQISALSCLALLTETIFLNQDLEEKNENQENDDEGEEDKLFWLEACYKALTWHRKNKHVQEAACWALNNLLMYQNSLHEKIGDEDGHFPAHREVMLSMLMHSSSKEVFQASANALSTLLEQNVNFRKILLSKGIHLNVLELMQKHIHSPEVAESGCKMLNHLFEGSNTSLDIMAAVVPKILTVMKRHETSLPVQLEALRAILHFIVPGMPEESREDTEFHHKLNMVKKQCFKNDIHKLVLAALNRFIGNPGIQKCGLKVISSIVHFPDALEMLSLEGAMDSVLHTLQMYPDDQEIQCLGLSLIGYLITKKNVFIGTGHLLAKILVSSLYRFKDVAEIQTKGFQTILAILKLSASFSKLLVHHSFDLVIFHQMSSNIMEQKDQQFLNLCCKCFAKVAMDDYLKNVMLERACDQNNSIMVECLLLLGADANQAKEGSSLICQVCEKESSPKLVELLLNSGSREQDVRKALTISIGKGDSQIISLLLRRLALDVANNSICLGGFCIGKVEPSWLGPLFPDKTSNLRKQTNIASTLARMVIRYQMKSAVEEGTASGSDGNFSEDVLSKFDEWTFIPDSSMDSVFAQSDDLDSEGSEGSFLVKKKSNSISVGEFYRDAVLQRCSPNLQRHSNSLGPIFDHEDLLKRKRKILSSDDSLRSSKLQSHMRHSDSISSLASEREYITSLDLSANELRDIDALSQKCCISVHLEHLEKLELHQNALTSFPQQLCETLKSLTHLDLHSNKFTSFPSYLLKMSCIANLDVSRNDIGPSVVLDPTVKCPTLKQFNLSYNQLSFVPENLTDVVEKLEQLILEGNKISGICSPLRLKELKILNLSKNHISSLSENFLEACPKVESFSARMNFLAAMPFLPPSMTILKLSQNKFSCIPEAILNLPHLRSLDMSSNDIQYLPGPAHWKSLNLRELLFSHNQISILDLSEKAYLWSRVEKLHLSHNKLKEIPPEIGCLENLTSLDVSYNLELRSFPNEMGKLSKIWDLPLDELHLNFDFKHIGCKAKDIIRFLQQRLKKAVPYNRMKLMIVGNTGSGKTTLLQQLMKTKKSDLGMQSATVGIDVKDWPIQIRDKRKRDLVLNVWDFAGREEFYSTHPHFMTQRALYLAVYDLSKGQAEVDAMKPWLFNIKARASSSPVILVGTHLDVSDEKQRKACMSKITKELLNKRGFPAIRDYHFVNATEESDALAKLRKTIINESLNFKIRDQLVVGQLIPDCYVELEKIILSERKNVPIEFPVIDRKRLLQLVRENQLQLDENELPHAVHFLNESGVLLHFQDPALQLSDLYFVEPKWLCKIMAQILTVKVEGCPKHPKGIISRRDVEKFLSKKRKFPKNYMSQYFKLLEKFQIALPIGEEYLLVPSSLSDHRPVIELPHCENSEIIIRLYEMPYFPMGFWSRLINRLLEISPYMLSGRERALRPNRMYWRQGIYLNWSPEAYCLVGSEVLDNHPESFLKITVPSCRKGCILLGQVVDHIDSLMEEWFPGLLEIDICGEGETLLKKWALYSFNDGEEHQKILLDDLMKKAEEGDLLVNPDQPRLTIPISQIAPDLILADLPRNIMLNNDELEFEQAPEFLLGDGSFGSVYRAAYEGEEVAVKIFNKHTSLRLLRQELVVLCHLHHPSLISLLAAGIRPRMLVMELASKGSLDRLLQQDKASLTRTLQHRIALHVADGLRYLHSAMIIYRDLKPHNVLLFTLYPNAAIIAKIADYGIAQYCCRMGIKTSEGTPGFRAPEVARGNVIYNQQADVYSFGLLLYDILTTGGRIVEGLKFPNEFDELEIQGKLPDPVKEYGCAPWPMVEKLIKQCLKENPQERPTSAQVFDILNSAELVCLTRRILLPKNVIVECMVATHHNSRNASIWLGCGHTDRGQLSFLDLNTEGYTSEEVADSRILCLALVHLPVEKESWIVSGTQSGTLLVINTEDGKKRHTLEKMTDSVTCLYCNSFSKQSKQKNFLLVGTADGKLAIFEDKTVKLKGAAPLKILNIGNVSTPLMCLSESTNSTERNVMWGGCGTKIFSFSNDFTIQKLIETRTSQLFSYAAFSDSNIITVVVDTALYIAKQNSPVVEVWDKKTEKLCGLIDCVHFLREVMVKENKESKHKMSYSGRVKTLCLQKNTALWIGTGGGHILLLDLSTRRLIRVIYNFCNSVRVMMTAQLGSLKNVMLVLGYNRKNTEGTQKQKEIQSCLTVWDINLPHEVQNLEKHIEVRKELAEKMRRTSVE
# Outline: as §1
# MLCK = target: T1, MLCK (Homo sapiens, UniProt Q32MK0); details: read-out: % control
# T1 sequence (Q32MK0 1-819): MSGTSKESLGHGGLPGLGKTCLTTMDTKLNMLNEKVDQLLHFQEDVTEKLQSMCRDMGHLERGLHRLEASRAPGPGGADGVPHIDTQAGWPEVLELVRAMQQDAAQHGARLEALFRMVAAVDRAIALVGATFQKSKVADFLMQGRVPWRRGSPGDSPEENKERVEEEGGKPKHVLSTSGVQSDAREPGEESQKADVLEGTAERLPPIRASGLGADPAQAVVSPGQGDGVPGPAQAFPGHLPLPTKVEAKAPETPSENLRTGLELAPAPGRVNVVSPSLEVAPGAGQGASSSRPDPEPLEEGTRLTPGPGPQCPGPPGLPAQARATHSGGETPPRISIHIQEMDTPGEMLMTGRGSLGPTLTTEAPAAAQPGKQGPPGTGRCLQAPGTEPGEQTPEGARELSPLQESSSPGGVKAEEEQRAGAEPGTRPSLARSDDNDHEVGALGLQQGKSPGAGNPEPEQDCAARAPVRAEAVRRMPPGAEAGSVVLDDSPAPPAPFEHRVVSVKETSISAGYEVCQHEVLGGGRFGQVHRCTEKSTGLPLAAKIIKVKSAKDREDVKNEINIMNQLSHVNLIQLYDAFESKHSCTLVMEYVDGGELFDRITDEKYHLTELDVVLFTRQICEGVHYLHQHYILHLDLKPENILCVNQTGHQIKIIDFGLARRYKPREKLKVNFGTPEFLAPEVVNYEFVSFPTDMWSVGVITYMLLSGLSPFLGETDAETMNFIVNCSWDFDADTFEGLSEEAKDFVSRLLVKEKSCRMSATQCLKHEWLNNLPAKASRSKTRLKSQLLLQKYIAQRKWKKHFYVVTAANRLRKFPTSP
# Outline: as §1
# PRKD3 = target: T2, PRKD3 (Homo sapiens, UniProt O94806); details: PRKD3, 1 μM; read-out: % control
# T2 sequence (O94806 1-890): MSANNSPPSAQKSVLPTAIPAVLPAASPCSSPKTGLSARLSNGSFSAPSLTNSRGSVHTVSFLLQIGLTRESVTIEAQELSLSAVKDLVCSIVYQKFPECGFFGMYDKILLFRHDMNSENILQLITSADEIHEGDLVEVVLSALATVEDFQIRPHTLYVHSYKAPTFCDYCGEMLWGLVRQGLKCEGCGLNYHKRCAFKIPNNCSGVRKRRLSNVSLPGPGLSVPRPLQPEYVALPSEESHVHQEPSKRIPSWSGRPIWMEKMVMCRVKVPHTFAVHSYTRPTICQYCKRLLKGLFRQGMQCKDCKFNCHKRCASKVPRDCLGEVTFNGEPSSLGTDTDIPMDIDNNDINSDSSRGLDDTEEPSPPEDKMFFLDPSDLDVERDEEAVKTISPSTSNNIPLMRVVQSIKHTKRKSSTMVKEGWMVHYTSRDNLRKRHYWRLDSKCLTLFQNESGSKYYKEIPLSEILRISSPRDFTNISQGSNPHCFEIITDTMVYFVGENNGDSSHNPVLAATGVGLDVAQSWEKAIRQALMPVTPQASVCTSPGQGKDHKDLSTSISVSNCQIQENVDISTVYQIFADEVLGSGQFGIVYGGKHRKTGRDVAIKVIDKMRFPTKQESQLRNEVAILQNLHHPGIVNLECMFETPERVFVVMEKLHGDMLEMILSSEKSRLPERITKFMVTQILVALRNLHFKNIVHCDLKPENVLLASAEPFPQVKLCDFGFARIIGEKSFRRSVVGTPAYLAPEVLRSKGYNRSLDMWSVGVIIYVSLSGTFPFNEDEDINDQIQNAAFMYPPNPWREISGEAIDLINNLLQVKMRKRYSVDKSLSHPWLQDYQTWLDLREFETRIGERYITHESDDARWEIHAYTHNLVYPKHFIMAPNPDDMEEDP
# Outline: as §1
# RIOK2 = RIOK2 (Homo sapiens, UniProt Q9BVS4); details: RIOK2, 1 μM; read-out: % control
# Chain of RIOK2 (Q9BVS4 whole entry): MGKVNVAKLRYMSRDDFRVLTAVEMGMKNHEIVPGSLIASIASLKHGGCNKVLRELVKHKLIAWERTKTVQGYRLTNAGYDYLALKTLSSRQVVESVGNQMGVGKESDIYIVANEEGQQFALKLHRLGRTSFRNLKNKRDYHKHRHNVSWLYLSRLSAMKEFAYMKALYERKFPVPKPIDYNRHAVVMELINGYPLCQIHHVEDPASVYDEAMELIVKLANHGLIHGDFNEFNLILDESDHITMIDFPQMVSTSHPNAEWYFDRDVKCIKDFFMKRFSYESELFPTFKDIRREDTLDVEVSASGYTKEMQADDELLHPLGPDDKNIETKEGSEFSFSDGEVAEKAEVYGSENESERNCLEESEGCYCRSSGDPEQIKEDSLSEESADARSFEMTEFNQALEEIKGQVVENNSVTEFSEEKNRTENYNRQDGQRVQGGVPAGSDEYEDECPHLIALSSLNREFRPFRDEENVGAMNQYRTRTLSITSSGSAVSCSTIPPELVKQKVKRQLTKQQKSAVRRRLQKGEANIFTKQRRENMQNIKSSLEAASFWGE
# Outline: as §1
# ULK3 = target: T3, ULK3 (Homo sapiens, UniProt Q6PHR2); details: ULK3, 1 μM; read-out: % control
# T3 sequence (Q6PHR2 1-472): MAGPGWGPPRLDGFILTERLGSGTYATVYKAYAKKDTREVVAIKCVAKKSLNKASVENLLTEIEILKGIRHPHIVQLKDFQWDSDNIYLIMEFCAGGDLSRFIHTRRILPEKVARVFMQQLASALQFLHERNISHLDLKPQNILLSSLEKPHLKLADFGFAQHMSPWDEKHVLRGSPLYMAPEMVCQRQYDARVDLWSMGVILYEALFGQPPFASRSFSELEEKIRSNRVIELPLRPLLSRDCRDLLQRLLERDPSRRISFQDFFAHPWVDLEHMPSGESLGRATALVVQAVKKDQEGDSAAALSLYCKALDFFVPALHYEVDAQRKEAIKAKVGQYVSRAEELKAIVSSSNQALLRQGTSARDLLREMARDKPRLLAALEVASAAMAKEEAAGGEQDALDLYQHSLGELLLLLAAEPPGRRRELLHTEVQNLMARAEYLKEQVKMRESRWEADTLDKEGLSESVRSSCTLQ
# Outline: as §1
# Chain of FGFR3 (P22607 23-806): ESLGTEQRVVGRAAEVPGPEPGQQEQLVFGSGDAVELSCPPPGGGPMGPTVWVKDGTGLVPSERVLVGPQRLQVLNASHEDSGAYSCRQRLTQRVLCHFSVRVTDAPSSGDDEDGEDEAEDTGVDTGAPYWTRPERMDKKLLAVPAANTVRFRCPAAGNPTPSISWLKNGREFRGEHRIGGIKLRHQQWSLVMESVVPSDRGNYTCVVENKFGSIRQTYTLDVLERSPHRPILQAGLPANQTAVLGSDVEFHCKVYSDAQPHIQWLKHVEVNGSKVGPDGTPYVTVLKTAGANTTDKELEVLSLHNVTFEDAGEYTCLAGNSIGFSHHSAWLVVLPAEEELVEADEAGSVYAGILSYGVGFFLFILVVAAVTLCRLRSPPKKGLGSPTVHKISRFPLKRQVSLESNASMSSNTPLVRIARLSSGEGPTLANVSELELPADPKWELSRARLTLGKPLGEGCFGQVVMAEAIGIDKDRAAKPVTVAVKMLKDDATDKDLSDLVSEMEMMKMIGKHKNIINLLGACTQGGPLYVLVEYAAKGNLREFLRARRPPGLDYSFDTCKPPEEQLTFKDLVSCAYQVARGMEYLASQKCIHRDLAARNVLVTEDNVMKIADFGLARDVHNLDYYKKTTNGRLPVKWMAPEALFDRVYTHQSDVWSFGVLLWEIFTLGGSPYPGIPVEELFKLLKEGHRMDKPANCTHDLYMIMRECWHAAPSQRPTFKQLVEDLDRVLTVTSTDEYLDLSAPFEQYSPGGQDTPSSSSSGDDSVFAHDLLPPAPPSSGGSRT
SMILES,remaining binding at 1 µM (FGFR3),remaining binding at 1 µM (LRRK2),remaining binding at 1 µM (MLCK),remaining binding at 1 µM (PRKD3),remaining binding at 1 µM (RIOK2),remaining binding at 1 µM (ULK3)
"CNc1c(-c2cnn([C@H]3CCN(C(C)=O)C[C@@H]3F)c2)cnc2[nH]cc(Cl)c12 [Compound 77, 1-((3S,4S)-4-(4-(3-chloro-4-(methylamino)-1H-pyrrolo[2,3-b]pyridin-5-yl)-1H-pyrazol-1-yl)-3-fluoropiperidin-1-yl)ethan-1-one]",64%,15%,13%,56%,73%,5.5%
"CNc1c(-c2ccc(C(=O)N3CCC(N4CCOCC4)CC3)cc2)cnc2[nH]cc(Cl)c12 [Compound 96, (4-(3-chloro-4-(methylamino)-1H-pyrrolo[2,3-b]pyridin-5-yl)phenyl)(4-morpholinopiperidin-1-yl)methanone]",82%,2.6%,5%,13%,26%,10%
"O=C(c1ccc(-c2cnc3[nH]cc(Cl)c3c2NC2CCCC2)cc1)N1CCC(N2CCOCC2)CC1 [Compound 101, (4-(3-chloro-4-(cyclopentylamino)-1H-pyrrolo[2,3-b]pyridin-5-yl)phenyl)(4-morpholinopiperidin-1-yl)methanone]",67%,33%,100%,35%,28%,92%
